ChEMBL document CHEMBL1134487, “Design, synthesis, and biological evaluation of analogues of the antitumor agent, 2-(4-[(7-chloro-2-quinoxalinyl)oxy]phenoxy)propionic acid (XK469)” (2001)

Legend:
Mus musculus [1] = test: Cytotoxicity against sc transplanted B-16 melanoma tumors of mouse origin, activity expressed as T/C(%) at the dose of 300 mg/kg, iv; type: functional
Mus musculus [2] = test: Cytotoxicity against sc transplanted colon-38 tumors of mouse origin, activity expressed as %T/C value at the dose of 546 mg/kg, iv; type: functional
Mus musculus [3] = test: Cytotoxicity against sc transplanted colon-51 tumors of mouse origin, activity expressed as T/C(%) at the dose of 980 mg/kg, po; type: functional
Mus musculus [4] = test: In vivo activity tested against C3H mice bearing mammary adenocarcinoma -17/ADR tumor measured as body weight loss at 620 mg/kg (po); type: functional
Mus musculus [5] = test: Cytotoxicity against sc transplanted colon-51 tumors of mouse origin, activity expressed as %body wt. loss at the dose of 980 mg/kg, po; type: functional
Mus musculus [6] = test: Cytotoxicity against sc transplanted Mam-16/C tumors of mouse origin, activity expressed as %T/C at the dose of 525 mg/kg, iv; type: functional
Mus musculus [7] = test: Cytotoxicity against sc transplanted Mam-16/C/Adr tumors of mouse origin, activity expressed as T/C(%) at the dose of 400 mg/kg, iv; type: functional
Mus musculus [8] = test: Cytotoxicity against sc transplanted Mam-17/0 tumors of mouse origin, activity expressed as T/C(%) at the dose of 620 mg/kg, iv; type: functional
Mus musculus [9] = test: Cytotoxicity against sc transplanted Mam-17/Adr tumors of mouse origin, activity expressed as T/C(%) at the dose of 620 mg/kg, iv; type: functional
Mus musculus [10] = test: Cytotoxicity against sc transplanted Panc-02 tumors of mouse origin, activity expressed as T/C(%) at the dose of 600 mg/kg, iv; type: functional
Mus musculus [11] = test: Cytotoxicity against sc transplanted colon-26 tumors of mouse origin, activity expressed as T/C(%) at the dose of 300 mg/kg, iv; type: functional
Mus musculus [12] = test: Cytotoxicity against sc transplanted Mam-16/C/Adr tumors of mouse origin, activity expressed as […] at the dose of 400 mg/kg, iv; type: functional, organism-based; parameters: dose 400 mg/kg
Mus musculus [13] = test: Cytotoxicity against sc transplanted Mam-16/C/Taxol tumors of mouse origin, activity expressed as %log kill at the dose of 480 mg/kg, iv; type: functional, organism-based; parameters: dose 480 mg/kg
Mus musculus [14] = test: Cytotoxicity against sc transplanted Mam-17/0 tumors of mouse origin, activity expressed as log10 Kill at the dose of 620 mg/kg, iv; type: functional, organism-based; parameters: dose 620 mg/kg
Mus musculus [15] = test: Cytotoxicity against sc transplanted Mam-17/Adr tumors of mouse origin, activity expressed as log10 Kill at the dose of 620 mg/kg, iv; type: functional, organism-based; parameters: dose 620 mg/kg
Mus musculus [16] = test: Cytotoxicity against sc transplanted Panc-02 tumors of mouse origin, activity expressed as log10 Kill at the dose of 600 mg/kg, iv; type: functional, organism-based; parameters: dose 600 mg/kg
Mus musculus [17] = test: Cytotoxicity against sc transplanted Squam-lung-LC12 tumors of mouse origin, activity expressed as log kill at the dose of 400 mg/kg, iv; All cures; type: functional, organism-based; parameters: dose 400 mg/kg
Mus musculus [18] = test: Cytotoxicity against sc transplanted colon-26 tumors of mouse origin, activity expressed as log10 Kill at the dose of 300 mg/kg, iv; type: functional, organism-based; parameters: dose 300 mg/kg
Mus musculus [19] = test: Cytotoxicity against sc transplanted Mam-17/0 tumors of mouse origin, activity expressed as cures at the dose of 620 mg/kg, iv;p 0/5 cures; type: functional
Mus musculus [20] = test: Cytotoxicity against sc transplanted Mam-17/Adr tumors of mouse origin, activity expressed as cures at the dose of 620 mg/kg, iv; 0/5 cures; type: functional
Mus musculus [21] = test: Cytotoxicity against sc transplanted colon-51 tumors of mouse origin, activity expressed as log10 Kill at the dose of 980 mg/kg, po; type: functional, organism-based; parameters: dose 980 mg/kg
Mus musculus [22] = test: Cytotoxicity against sc transplanted Squam-lung-LC12 tumors of mouse origin, activity expressed as cures at the dose of 400 mg/kg, iv; 5/5 cures; type: functional
Mus musculus [23] = test: In vivo activity tested against C3H mice bearing mammary adenocarcinoma -17/ADR tumor measured as activity rating at 620 mg/kg (po); type: functional
Mus musculus [24] = test: Cytotoxicity against sc transplanted DMS273 sm cell tumors of mouse and human origin, activity expressed as cures at the dose of 175 mg/kg, iv; 0/6 cures; type: functional
Mus musculus [25] = test: Cytotoxicity against sc transplanted Mam-16/C tumors of mouse origin, activity expressed as cures at the dose of 525 mg/kg, iv; 1/5 cures; type: functional
Mus musculus [26] = test: Cytotoxicity against sc transplanted Mam-16/C/Adr tumors of mouse origin, activity expressed as […] at the dose of 400 mg/kg, iv; 0/5 cures; type: functional
Mus musculus [27] = test: Cytotoxicity against iv transplanted AML1498 tumors of mouse origin, activity expressed as log10 Kill at the dose of 165 mg/kg, iv; type: functional, organism-based; parameters: dose 165 mg/kg
Mus musculus [28] = test: Cytotoxicity against iv transplanted L1210 tumors of mouse origin, activity expressed as log10 Kill at the dose of 300 mg/kg, iv; type: functional, organism-based; parameters: dose 300 mg/kg
Mus musculus [29] = test: Cytotoxicity against sc transplanted DMS273 sm cell tumors of mouse and human origin, activity expressed as log10 Kill at the dose of 175 mg/kg, iv; type: functional, organism-based; parameters: dose 175 mg/kg
Mus musculus [30] = test: Cytotoxicity against sc transplanted Mam-16/C tumors of mouse origin, activity expressed as log kill at the dose of 525 mg/kg, iv; type: functional, organism-based; parameters: dose 525 mg/kg
Mus musculus [31] = test: Cytotoxicity against sc transplanted Mam-16/C tumors of mouse origin, activity expressed as %body wt loss at the dose of 525 mg/kg, iv; type: functional
Mus musculus [32] = test: Cytotoxicity against sc transplanted colon-26 tumors of mouse origin, activity expressed as cures at the dose of 300 mg/kg, iv; 0/5 cures; type: functional
Mus musculus [33] = test: Cytotoxicity against sc transplanted colon-38 tumors of mouse origin, activity expressed as cures at the dose of 546 mg/kg, iv; 3/5 cures; type: functional
Mus musculus [34] = test: Cytotoxicity against sc transplanted colon-51 tumors of mouse origin, activity expressed as cures at the dose of 980 mg/kg, po; 1/5 cures; type: functional
Mus musculus [35] = test: In vivo activity tested against C3H mice bearing panc-03 murine tumor, measured as cures at 328 mg/kg (po); 4/6 cures; type: functional
Mus musculus [36] = test: Cytotoxicity against sc transplanted Mam-16/C/Taxol tumors of mouse origin, activity expressed as %body wt. loss at the dose of 480 mg/kg, iv; type: functional
Mus musculus [37] = test: Cytotoxicity against sc transplanted Panc-02 tumors of mouse origin, activity expressed as %body wt. loss at the dose of 600 mg/kg, iv; type: functional
Mus musculus [38] = test: Cytotoxicity against sc transplanted Panc-03 tumors of mouse […] origin, activity expressed as %body wt loss at the dose of 328 mg/kg, po; type: functional
Mus musculus [39] = test: Cytotoxicity against sc transplanted Squam-lung-LC12 tumors of mouse, activity expressed as %body wt loss at the dose of 400 mg/kg, iv; type: functional
Mus musculus [40] = test: Cytotoxicity against sc transplanted colon-26 tumors of mouse origin, activity expressed as %body wt. loss at the dose of 300 mg/kg, iv; type: functional
Mus musculus [41] = test: In vivo activity tested against C3H mice bearing panc-03 murine tumor measured as body weight loss at 328 mg/kg (po); type: functional

CC(Oc1ccc(Oc2cnc3ccc(Cl)cc3n2)cc1)C(=O)O (stereo unspecified)
T/C (Mus musculus [1]): 4%
T/C (Mus musculus [2]): 0%
T/C (Mus musculus [3]): 0%
Body weight loss (Mus musculus [4]): -4%
Body weight loss (Mus musculus [5]): -5%
T/C (Mus musculus [6]): 0%
T/C (Mus musculus [7]): 0%
T/C (Mus musculus [8]): 10%
T/C (Mus musculus [9]): 2%
T/C (Mus musculus [10]): 9%
T/C (Mus musculus [11]): 14%
Log kill (Mus musculus [12]): 4.1
Log kill (Mus musculus [13]): 2.7
Log kill (Mus musculus [14]): 3.4
Log kill (Mus musculus [15]): 3.9
Log kill (Mus musculus [16]): 2.8
Log kill (Mus musculus [17]): All cures
Log kill (Mus musculus [18]): 1.3
Cures (Mus musculus [19]): 0
Cures (Mus musculus [20]): 0
Log kill (Mus musculus [21]): 2.7
Cures (Mus musculus [22]): 5
Activity rating (Mus musculus [23]): >2.8
Cures (Mus musculus [24]): 0
Cures (Mus musculus [25]): 1
Cures (Mus musculus [26]): 0
Log kill (Mus musculus [27]): 2
Log kill (Mus musculus [28]): 6.4
Log kill (Mus musculus [29]): 1.6
Log kill (Mus musculus [30]): 5.2
Body weight loss (Mus musculus [31]): -9%
Cures (Mus musculus [32]): 0
Cures (Mus musculus [33]): 3
Cures (Mus musculus [34]): 1
Cures (Mus musculus [35]): 4
Body weight loss (Mus musculus [36]): -11%
Body weight loss (Mus musculus [37]): -3%
Body weight loss (Mus musculus [38]): -4%
Body weight loss (Mus musculus [39]): -3%
Body weight loss (Mus musculus [40]): -12%
Body weight loss (Mus musculus [41]): -4%
